This is an account of results in US20230165978A1, “Composition and A Method For Diagnosing And Treating Bacterial Infection” (Hong Kong Centre for Cerebro-Cardiovascular Health …, priority 2021, published 2023).

Like-named read-outs stand apart in the source and are kept apart here.

Data set [1] can be described thus: Photophysical properties (absorption and photoluminescence spectra). Format: physicochemical. As to the method:
All chemicals and reagents were commercially available and used as received without further purification. ^1H and ^13C NMR spectra were measured on a Bruker ARX 400 NMR spectrometer using CDCl3 and DMSO-d6 as solvents, and tetramethylsilane (TMS; 6=0 ppm) was chosen as the internal reference. High-resolution mass spectra (HRMS) were obtained on a Finnigan MAT TSQ 7000 mass spectrometer system operated in a matrix-assisted laser desorption and ionization-time-of-flight (MALDI-TOF) mode. Absorption spectra were measured on a Milton Roy Spectronic 3000 array spectrophotometer. Steady-state photoluminescence (PL) spectra were measured on a PerkinElmer spectrofluorometer LS 55.

A short description of data set [2]: ROS generation test with DCFH-DA under white light. The conditions noted are these: photosensitizer 10 μM, DCFH-DA 40 μM. How it is done: Dichlorodihydrofluorescein diacetate (DCFH-DA, Sigma-Aldrich #D6665-5G, 76-54-0, China) was used as the ROS indicator. 40 μL of DCFH-DA stock solution (1 mM) was added into 2 mL of different photosensitizers suspension (10 μM) including TBPPs and chlorin e6 (Sigma-Aldrich #COM448659756-100MG, QC-6466, USA). Then white light ([…]) was used to irradiate, and the emission of DCFD-DA at 525 nm was recorded at various irradiation times.

In data set [3] the test system is human bladder carcinoma cell line (UMUC-3). Put plainly: Cancer cell staining by TBPP. The conditions noted are these: TBPP 1 μM. Format: cell-based. How it is done:
The human bladder carcinoma cell line UMUC-3 (CRL-1749, ATCC) were cultured in modified Minimum Essential Medium Alpha (MEM a; Gibco, #12561049, USA) supplemented with 10% (v/v) fetal bovine serum (FBS; Gibco, #10270106, USA) and 1% (v/v) penicillin-streptomycin (Gibco, #15140122, USA) at 37° C. with 5% CO2 in a humidified environment. Cells were cultured in sterile T25 or T75 flasks (Jet BIOFIL, China), with growth media replaced every 48 h. Cultures were passaged at 80% confluence.
[…] of TBPP and 10 μM of Calcein-AM were added to the channels. Clusters were then imaged after 60 min incubation at 37° C. Z-stack were recorded via confocal microscope.

The next data set has as its system UPEC. Put plainly: Fluorescent imaging of bacteria by TBPP. Format: cell-based, uropathogenic E. coli (UPEC) strain UTI89. How it is done: A single colony of UPEC on solid culture medium was transferred to 5 mL of Luria-Bertani (LB) medium and incubated at 37° C. for overnight. After reaching the logarithmic phase, bacteria were harvested by centrifuging at 10000 g for 3 min. After removing the supernatant, bacteria were diluted in ABTGC (ABT minimal medium supplemented with […]) to 1×10^5/mL. 300 μL of bacteria solution were added to the culture dish. Then, 300 μL dye solution in saline at appropriate concentration was added into the culture dish for 1 h and directly imaged by Leica TCS SP8 MP confocal microscope (Germany).

For a further data set, the system named is UMUC-3 cell lines. In words: Drug treatments of cancer cell clusters in 3D model with bacteria outside tissue; cell viability test (Hoechst/Calcein-AM). Format: cell-based. The note with it: Homo sapiens, UMUC3, 24 h; for IC50: 3D model with bacteria outside tissue, 24 hrs of incubation, read-out: IC50 of doxorubicin for cancer cells. How it is done:
70% (v/v) ethanol (EtOH; UNI-CHEM) was added to channels to sterilize the platform and remove air bubbles. 1× phosphate-buffered saline (PBS; Gibco, #10010049, USA) was used to remove residual EtOH, and the microwell layer was then coated with 50 μL of 2.5% bovine serum albumin (v/v) (BSA) (Sigma-Aldrich, #A9418-5G, Germany) to prevent cell adhesion to the channels. The capacity of each channel was 150 μL. UMUC-3 cell clusters in the microchannels could be stained in situ with Hoechst dye (Invitrogen, #H1399, USA) for 30 min to visualize cell nuclei or biofilm. Imaging and downstream analysis were carried out in situ after 1 h, 9 h, and 24 h of infection. UMUC-3 cell clusters without bacteria were used as negative controls. The bacterial suspension was centrifuged for 10,000 rpm. LB supernatant was removed and replaced with antibiotic-free MEM a (10% supplemented with FBS) at the required multiplicity of infection (MOI) rates (500:1 or 1:1). Control groups corresponding to 0 h time points were obtained before the introduction of bacteria.
Nuclear dye Hoechst (blue) and Calcein-AM (green) Invitrogen, #C3100MP, USA) were added to the channels at a final concentration of 20 μM. Clusters were imaged after 30 min incubation at 37° C. Using ImageJ for analysis. We enumerated only cancer cells within the area range of 25-250 μm^2 and circularity 0.3-1.0 to ensure that smaller bacteria were excluded from the count.
UMUC-3 cells were seeded into a PIEB device at 35×10^3 cells/channel concentration and cultured at 37° C. overnight. Then UPEC was suspended in PBS and added into each channel at the MOI of 1:1. Then the bacteria and cells were incubated at 37° C. for 1 h in the device. TBPP was added into the channel and followed by light treatment for 30 mins. The medium was replaced by fresh RPMI with DOX (Sigma-Aldrich, #D1515-10MG, 25316-40-9, China). After 24 h incubation, cells were dyed with Hoechst and Calcein AM for imaging.

Usually viability stands for a per cent measure of how many cells are alive, often set against a control. For the compound `C[N+](C)(C)CCC[n+]1ccc(-c2ccc(-c3ccc(N(c4ccccc4)c4ccccc4)cc3)c3nsnc23)cc1.[Br-].[Br-]` [TBPP, 4-(7-(4-(diphenylamino)phenyl)benzo[c][1,2,5]thiadiazol-4-yl)-1-(3-(trimethylammonio)propyl)pyridin-1-ium bromide], the “Stokes shift (Δv)” value in data set [1] was determined as 198 nm. In data set [1] (in DMSO, 10 μM), this compound returned an absorption maximum of 492 nm and an emission maximum of 690 nm. In addition, the “ROS generation (change of DCFH-DA fluorescence I/I0 with irradiation time)” value in data set [2] was “much greater change than commercial photosensitizer, Ce6”. For the same compound, the “fluorescence in cancer cell staining” value in data set [3] is given as “negligible fluorescence”. Moreover, the “fluorescent signal of UPEC biofilm” value in the data set with UPEC (TBPP 1 μM, biofilm compared with planktonic bacteria) is recorded as “much higher signal than the planktonic bacteria”. Besides, the “NIR fluorescent signal on UPEC (monolayer model)” value in the data set on UPEC (TBPP 10 μM, 1 h to 24 h) is “targeting ability to UPEC”. Also, in the data set with UMUC-3 cell lines (read-out: viability of cancer cells), the viability at 5 µM is about 60%.

What is called IC50 is the concentration that gives 50% inhibition. With `COc1cccc2c1C(=O)c1c(O)c3c(c(O)c1C2=O)C[C@@](O)(C(=O)CO)C[C@@H]3O[C@H]1C[C@H](N)[C@H](O)[C@H](C)O1` [doxorubicin], the figures for the IC50 in the data set with UMUC-3 cell lines (doxorubicin alone) and in the data set on UMUC-3 cell lines (doxorubicin combined with TBPP) were 8 µM and 5 µM, respectively.
